Laboratory results from patent US8975246B2, “Bile acid or bile salt fatty acid conjugates” (Galmed Research and Development Ltd., priority 2001, dated 2015).

Key:
Assay type in all cases: in vivo
[1] = system: Inbred C57J/L mice; test: Liver lipid/protein ratio, mice on high fat lithogenic diet; settings: BAFAC 150 mg/Kg daily by gavage, 5 weeks
Experimental: Inbred C57J/L mice, 4 weeks old and weighing approx. 20 gm (Jackson Lab. Maine, USA) were used. They were fed for 5 weeks a high fat lithogenic diet consisting of: Cholesterol 1%, Cholic Acid 0.5%, lard 10%, butter 6%, palmitic acid 1.2% and corn oil 2% added (w/w) to their regular diet. In addition to the diet the animals were given daily, by gavage, either a BAFAC (150 mg/Kg) suspended in saline or an equal volume of saline only. The BAFACs were conjugates of cholic acid (at position 3) with either Palmitic Acid (C-16) or Arachidic Acid (C-20) or Behenic Acid (C-22) using an amide bond. The controls (n=5) received saline, the test animals received either the C-16 conjugate (n=5), the C-20 conjugate (n=5) or the C-22 conjugate (n=3). After 5 weeks, following an overnight fast, the animals were anesthetized using ketamine, the liver was removed, and the animals were sacrificed by ketamine overdose. A 0.5 gm sample of liver was homogenized in 5 ml of buffered saline. Liver lipids were extracted from the homogenate by the Folch method using chloroform:methanol (2:1, vol/vol). Half a ml of the homogenate were extracted in 5 ml of the Folch solution. After evaporation of the solvent the lipids were weighed and reevaporated several times until constant weight was obtained. The proteins were quantified in another aliquot of the homogenate according to the method of Bradford. (Bradford M. M., Annal Biochem. 1976, 72:248).
The lipid protein ratio (mg/mg) was calculated. The results for each group are given as means (+St. Dev.) The group values were: […]

[2] = system: Golden Syrian Male Hamsters; test: Fasting blood glucose, hamsters on fatty liver diet (NIDDM model); settings: BAFAC 150 mg/kg/day by gavage, 3 weeks, vs saline
Experimental: The effects of BAFACs on fasting blood glucose were tested in 3 animal species: Hamsters, Rats and Mice. The animals were kept on regular or high fat diets (as specified). In each group half of the animals received a daily BAFAC dose (150 mg/kg) dispersed in 0.5 ml of saline by gavage. The other half received similarly, by gavage, an equal volume of saline only. All animals were kept on a 12 hr day/night cycle at 22° C. throughout the experiment. They had access to water ad libidum.
Golden Syrian male hamsters 4 weeks old (90-100 gm) were fed a fatty liver diet consisting of cholesterol (1%), palmitic acid (1.2%), butter (6%), lard (10%), and corn oil (2%) added (w/w) to their regular diet. Blood glucose was measured at sacrifice in the fasting state after 3 weeks of the trial. There were 5 control and 5 test animals.
The hamsters and rats on the high fat diets developed fatty liver (confirmed by chemical measurement of liver fat), a high fasting blood glucose, and represented models of NIDDM.
ICR male mice, 4 weeks old (approx. 20 gm) were fed a regular diet. Streptozotocin 200 mg/kg was injected i.p. on the first day of the experiment. (This induced damage to the islet cells of the pancreas and simulated IDDM). Fasting blood glucose was obtained from sacrificed animals after 16 days of the trial. There were 3 groups of 7 animals each. Controls—regular diet only. […]

[3] = system: Golden Syrian Hamsters; test: Serum cholesterol of hamsters on lithogenic diet; settings: Lithogenic diet 1 + BAFAC II 150 mg/kg/day by gavage, 10 W
Experimental: Golden Syrian Hamsters-(Anilab, Rehovot, Israel) 4-6 weeks old weighing 90-110 gm were used. They were fed a lithogenic diet (No. 1) consisting of their regular diet supplemented with (w/w) cholesterol 1%, Palmitic Acid 1.2%, Corn Oil 2% (modified from Ayvad et al., Lipids, 1992; 27:993-998) for 10 weeks. Half of the animals were given in addition 3β-arachidylamido-7α,12α-dihydroxy-5β-cholan-24-oic acid at a dose of 150 mg/kg/day suspended in saline, by intragastric gavage. The control animals were similarly given an equal volume of saline. After ten weeks the animals were anesthetized, heart blood was drawn for analysis. The liver and other organs were removed. Serum cholesterol levels were determined by autoanalyzer.

[4] = system: Golden Syrian Male Hamsters; test: Fatty liver histologic score, hamsters; settings: Lithogenic diet 1 + BAFAC 150 mg/kg/day, 10 W
Experimental: The presence of fatty liver was evaluated by a pathologist unaware of the treatments, scoring coded slides in a blinded manner.
The scoring system was as follows:
Golden Syrian Male Hamsters (Anilab, Rehovot, Israel) […] weighing 90-110 gm were used. They were fed a lithogenic diet (No 1). Half of the animals were given in addition 150 mg/kg/day of 3β-arachidylamido-7α,12α-dihydroxy-5β-cholan-24-oic acid. The compound was given suspended in saline, by intragastric gavage. Control animals were similarly given saline only. After 10 weeks the animals were anesthetized and sacrificed. The liver and other organs were removed and placed in formaline for histologic examination.

CCCCCCCCCCCCCCCCCCCC(=O)N[C@H]1CC[C@@]2(C)[C@@H](C1)C[C@@H](O)[C@@H]1[C@@H]2C[C@H](O)[C@]2(C)[C@@H]([C@H](C)CCC(=O)O)CC[C@@H]12 [Aramchol, 3β-arachidylamido-7α,12α-dihydroxy-5β-cholan-24-oic acid]
lipid protein ratio in liver, mean (+St. Dev.) [1]: 1.44 ± 1.18 mg/mg
fasting blood glucose [2]: markedly reduced
Serum Cholesterol (mean + StD) [3]: 202 (59.6) mg %
Fatty Liver Scores: number of animals with score 0 ([4]; n 7, 0 - No fatty liver): 6
Fatty Liver Scores: number of animals with score 2 ([4]; n 7, 2 - Mild fatty liver): 1
Fatty Liver Score, mean ([4]; score 0 (no fatty liver) to 4 (severe, >50% of liver surface)): 0.28
